Test results reported in US20250275539A1, “APYRASE INHIBITORS” (Texas Crop Science, Inc., priority 2024, published 2025).
Like-named read-outs stand apart in the source and are kept apart here.

Columns and labels:
[1] = tested on: Amaranthus retroflexus (pigweed); assay: Enhancement of herbicide activity: pre-emergence Amaranthus kill with metribuzin; assay type: in vivo; conditions: Amaranthus retroflexus
Method: Specifically, Amaranthus retroflexus (pigweed) was treated pre-emergence with metribuzin alone or in combination with an enhancer compound disclosed herein. Fifteen seeds of Amaranthus retroflexus were sown in soil in each pot and then sprayed with a mixture of metribuzin at the appropriate rate shown in Table 5 and the compound of this invention at 100 g/ha using a track sprayer at a water volume of 200 L/hectare. Small amounts of acetone were used to aid solubility. The pots were watered immediately after sowing and treatment and then allowed to stand in a glasshouse. Assessment of kill was made seven and fourteen days after treatment. The test included four replicates for each treatment and the control.

apyrase = assay: Apyrase inhibition assay (screen for apyrase inhibitors, phosphate release read at 630 nm); assay type: biochemical; conditions: inhibitor conc at 1 mM (10 μl added), 3 mM ATP, pH 6.5, room temperature 1 hr
Method: Apyrase inhibitors useful as enhancers of pesticidal activity are assessed using an in vitro assay. The method of Windsor, Bio Techniques 33:1024-1030 (November 2002) was used as follows
• 96 well plates were used for the assay: (Greiner bio-one: REF-655901-96 well, PS, F-bottom, Clear, Non-binding)
• Reaction Buffer: 60 mM Hepes; 3 mM MgCl2, 3 mM CaCl2) and 3 mM ATP (pH 6.5) • Development Buffer A: 2% aqueous ammonium molybdate • Development Buffer B: 11% ascorbic acid in 37.5% TCA in water • Stop buffer C: 2% trisodium citrate in 2% acetic acid solution in water
• Add 100 μl of reaction buffer to each well. • Add 10 μl of DMSO (control) or inhibitor/compound or compounds such as N1915 or orthovanadate to each well. (use inhibitor conc at 1 mM; orthovanadate at 2 mM and N1915 at 1 mM) • Add 10 μl of apyrase (concentration based on optimization—Dilute 1 U/μl enzyme to different concentrations such as 0.1 U, 0.05 U, 0.0025, 0.001 U, 0.0005 U—to find a good range) • Incubate plate at room temperature for 1 hr • Mix development buffer A and B in the ratio of 1:1.5 (just before use). • Add 50 μl of A: B mix in each well (incubate for 2 mins) • Add 50 μl of C in each well • Measure/Read Absorbance of plate @630 nm
Inhibitory data for the apyrase assay described above are provided for selected compounds in Table 3. D is inhibition of 0% to 10%, C is inhibition from 10% to 20%, B is inhibition from 20% to 30%, and A is inhibition above 30%. Blank entries signify compounds that were not tested.

[2] = tested on: Brown Rust (Puccinia recondita) on wheat; assay: Greenhouse crop test: control of Brown Rust on wheat in combination with commercial fungicides; assay type: in vivo; conditions: wheat JB Diego, inoculated 24 hours after treatment, evaluated at fourteen days; for Amistar (% control of the disease, compound + fungicide): with Amistar 0.04 L/ha; for Balaya (% control of the disease, compound + fungicide): with Balaya 0.25 L/ha; for Imtrex (% control of the disease, compound + fungicide): with Imtrex 0.45 L/ha; for Proline (% control of the disease, compound + fungicide): with Proline 0.15 L/ha
Method: In this method, exemplary compounds were evaluated for their ability to control Brown Rust (Puccinia recondita) on wheat in a controlled greenhouse environment in combination with one of four fungicides, Amistar, Imtrex, Proline or Balaya. In these studies, wheat plants (JB Diego) were used. Seeds were sown in 9 cm diameter pots to a depth of 1 to 2 cm using Petersfield potting compost (75% medium grade peat, 12% screened sterilized loam, 3% medium grade vermiculite, 10% grit (5 mm screened, lime free), 1.5 kg PG mix per m3, lime to pH5.5-6.0 and wetting agent (Vitax Ultrawet 200 ml per m3) and germinated/grown at 23 C under a 16 h day/8 h night light regime. Plants were treated two to three weeks after sowing when they were at the BBCH 11 growth stage ([…]). Wheat plants were inoculated with Puccinia triticina (Brown rust) 24 hours after treatment. A track sprayer was used to treat the plants with the mixture of commercial fungicide and test compound using a water volume of 200 L/ha. Four replicates were used for each combination of fungicide, pathogen and test compound. Each plant was evaluated at fourteen days (once the disease symptoms were fully expressed) for % control of the disease. Appropriate controls were used for all experiments, including an ‘inoculation check’ wherein plants were inoculated with their specific pathogen to assess disease levels. Also, each commercial fungicide was tested on its own as a part of each treatment, this being benchmark against which the experimental compounds were evaluated. […] That is, the present compounds, although not fungicidal by themselves, enhance the activity of fungicides, thus the enhancer compounds work synergistically in combination with fungicides to control disease. • Amistar (0.04 L/ha) • Imtrex (0.45 L/ha) • Proline (0.15 L/ha) • Balaya (0.25 L/ha)

| Structure (SMILES) | Inhibition (apyrase) | also measured |
| --- | --- | --- |
| CSc1nnc(C(C)(C)C)c(=O)n1N [None (metribuzin only), metribuzin, reference compound] |  | pest or weed control at 100 g/ha ([1]; 168 h, read-out: Pre-Emergence Amaranthus Kill Percentage, Assessed 7 DAT, Metribuzin rate 50 g/ha): 0%; pest or weed control at 100 g/ha ([1]; 168 h, read-out: Pre-Emergence Amaranthus Kill Percentage, Assessed 7 DAT, Metribuzin rate 100 g/ha): 15.2%; pest or weed control at 100 g/ha ([1]; 168 h, read-out: Pre-Emergence Amaranthus Kill Percentage, Assessed 7 DAT, Metribuzin rate 200 g/ha): 60.9%; pest or weed control at 100 g/ha ([1]; 336 h, read-out: Pre-Emergence Amaranthus Kill Percentage, Assessed 14 DAT, Metribuzin rate 50 g/ha): 7.7%; pest or weed control at 100 g/ha ([1]; 336 h, read-out: Pre-Emergence Amaranthus Kill Percentage, Assessed 14 DAT, Metribuzin rate 100 g/ha): 38.3%; pest or weed control at 100 g/ha ([1]; 336 h, read-out: Pre-Emergence Amaranthus Kill Percentage, Assessed 14 DAT, Metribuzin rate 200 g/ha): 74% |
| Cc1ccc(C)c(NS(=O)(=O)c2ccc(-c3ccccc3)cc2)c1 [Compound A-5, N-(2,5-dimethylphenyl)-[1,1′-biphenyl]-4-sulfonamide] | A (A is inhibition above 30%) | Amistar (% control of the disease, compound + fungicide) [2]: 89.2%; Balaya (% control of the disease, compound + fungicide) [2]: 13.0%; Imtrex (% control of the disease, compound + fungicide) [2]: 24.3%; Proline (% control of the disease, compound + fungicide) [2]: 15.1% |
| Cc1cccc(NS(=O)(=O)c2ccc(C3CCCCC3)cc2)c1 [Compound A-64, 4-cyclohexyl-N-(m-tolyl)benzenesulfonamide] | A (A is inhibition above 30%) | Amistar (% control of the disease, compound + fungicide) [2]: 69.5%; Balaya (% control of the disease, compound + fungicide) [2]: −75.9%; Imtrex (% control of the disease, compound + fungicide) [2]: −15.4%; Proline (% control of the disease, compound + fungicide) [2]: 2.9% |
| O=S(=O)(Nc1cccc(Cl)c1N1CCOCC1)c1ccc(-c2ccccc2)cc1 [Compound A-116, N-(3-chloro-2-morpholinophenyl)-[1,1′-biphenyl]-4-sulfonamide] | A (A is inhibition above 30%) | Amistar (% control of the disease, compound + fungicide) [2]: 68.0%; Balaya (% control of the disease, compound + fungicide) [2]: 24.2%; Imtrex (% control of the disease, compound + fungicide) [2]: 48.4%; Proline (% control of the disease, compound + fungicide) [2]: 14.6% |
| Cn1ccnc(NS(=O)(=O)c2ccc(-c3ccccc3)cc2)c1=O [Compound A-23, N-(4-methyl-3-oxo-3,4-dihydropyrazin-2-yl)-[1,1′-biphenyl]-4-sulfonamide] | B (B is inhibition from 20% to 30%) |  |
| CCCc1ccc(S(=O)(=O)Nc2ccc(S(=O)(=O)N(C)C)cc2)cc1 [Compound A-97, N,N-dimethyl-4-((4-propylphenyl)sulfonamido) benzenesulfonamide] | C (C is inhibition from 10% to 20%) |  |
| Cc1cccc(NS(=O)(=O)c2ccc(NC(=O)Nc3ccc([N+](=O)[O-])cc3)cc2)c1 [Compound A-98, 4-(3-(4-nitrophenyl)ureido)-N-(m-tolyl)benzenesulfonamide] | A (A is inhibition above 30%) |  |
| Cc1cccc(NS(=O)(=O)c2ccc(C=CC(=O)O)cc2)c1 [Compound A-61, 3-(4-(N-(m-tolyl)sulfamoyl)phenyl)acrylic acid] | D (D is inhibition of 0% to 10%) |  |
| CCCc1ccc(S(=O)(=O)Nc2ccc(C(=O)N(CC)CC)cc2)cc1 [Compound A-78, N,N-diethyl-4-((4-propylphenyl)sulfonamido) benzamide] | D (D is inhibition of 0% to 10%) |  |
| CCCc1ccc(S(=O)(=O)Nc2c(F)cc(F)cc2Br)cc1 [Compound A-51, N-(2-bromo-4,6-difluorophenyl)-4-propylbenzenesulfonamide] | D (D is inhibition of 0% to 10%) |  |
| O=S(=O)(c1ccc(-c2ccccc2)cc1)N1CCCSCC1 [Compound A-106, 4-([1,1′-biphenyl]-4-ylsulfonyl)-1,4-thiazepane] | D (D is inhibition of 0% to 10%) |  |
| CCN1CCCC(NS(=O)(=O)c2ccc(-c3ccccc3)cc2)C1 (centres unmarked) [Compound A-117, N-(1-ethylpiperidin-3-yl)-[1,1′-biphenyl]-4-sulfonamide] | D (D is inhibition of 0% to 10%) |  |
| N#Cc1cnc(Cl)c(NS(=O)(=O)c2ccc(-c3ccccc3)cc2)c1 [Compound A-24, N-(2-chloro-5-cyanopyridin-3-yl)-[1,1′-biphenyl]-4-sulfonamide] | C (C is inhibition from 10% to 20%) |  |
| O=S(=O)(Nc1cc(-c2cccnc2)n[nH]1)c1ccc(-c2ccccc2)cc1 [Compound A-14, N-(3-(pyridin-3-yl)-1H-pyrazol-5-yl)-[1,1′-biphenyl]-4-sulfonamide] | D (D is inhibition of 0% to 10%) |  |
| CCCc1ccc(S(=O)(=O)Nc2cc(S(=O)(=O)N3CCCCC3)ccc2C)cc1 [Compound A-90, N-(2-methyl-5-(piperidin-1-ylsulfonyl)phenyl)-4-propylbenzenesulfonamide] | A (A is inhibition above 30%) |  |

The next lines start with results.

| Inhibition (apyrase) | Structure (SMILES) | also measured |
| --- | --- | --- |
| C (C is inhibition from 10% to 20%) | CCCc1ccc(S(=O)(=O)Nc2c(F)cccc2CO)cc1 [Compound A-16, N-(2-fluoro-6-(hydroxymethyl)phenyl)-4-propylbenzenesulfonamide] |  |
| C (C is inhibition from 10% to 20%) | CCCc1ccc(S(=O)(=O)Nc2cccc(N3CCCC3=O)c2)cc1 [Compound A-7, N-(3-(2-oxopyrrolidin-1-yl)phenyl)-4-propylbenzenesulfonamide] |  |
| D (D is inhibition of 0% to 10%) | CCCc1ccc(S(=O)(=O)Nc2cccc(C(N)=O)c2)cc1 [Compound A-84, 3-((4-propylphenyl)sulfonamido) benzamide] |  |
| D (D is inhibition of 0% to 10%) | CCCc1ccc(S(=O)(=O)Nc2ccc(C(N)=O)cc2)cc1 [Compound A-81, 4-((4-propylphenyl)sulfonamido) benzamide] |  |
| C (C is inhibition from 10% to 20%) | CCCc1ccc(S(=O)(=O)Nc2ccccc2-c2nncn2C)cc1 [Compound A-107, N-(2-(4-methyl-4H-1,2,4-triazol-3-yl)phenyl)-4-propylbenzenesulfonamide] |  |
| B (B is inhibition from 20% to 30%) | CCCc1ccc(S(=O)(=O)Nc2cc(Cl)ccc2N2CCOCC2)cc1 [Compound A-47, N-(5-chloro-2-morpholinophenyl)-4-propylbenzenesulfonamide] |  |
| D (D is inhibition of 0% to 10%) | CCCc1ccc(S(=O)(=O)Nc2ccc(Cl)c(C(=O)O)c2)cc1 [Compound A-102, 2-chloro-5-((4-propylphenyl)sulfonamido) benzoic acid] |  |
| C (C is inhibition from 10% to 20%) | CCCc1ccc(S(=O)(=O)Nc2ccc(C)cc2Cl)cc1 [Compound A-82, N-(2-chloro-4-methylphenyl)-4-propylbenzenesulfonamide] |  |
| D (D is inhibition of 0% to 10%) | CCCc1ccc(S(=O)(=O)Nc2ccccc2Sc2nncn2C)cc1 [Compound A-27, N-(2-((4-methyl-4H-1,2,4-triazol-3-yl)thio)phenyl)-4-propylbenzenesulfonamide] |  |
